Source: patent publication US8481503B2, “Combination cancer therapy with an AKT inhibitor and other anticancer agents” (Merck Sharp & Dohme Corp., priority 2009, dated 2013)

Assays:
Assay type in all cases: cell-based, Human
[1] = test system: A2780 ovarian cancer cell line; test: in vitro proliferation/viability, combination Compound A and standard of care agents (CellTiter-Glo, CalcuSyn CI); conditions: combination partner SOC with Compound A, simultaneous 72 h
Method: (§1) A 2- or 3-fold serial dilution series of concentrated Compound A/carboplatin combinations was prepared, in which the concentration ratio of the two drugs was fixed and equal to […] ratio of Compound A and carboplatin determined in single agent titrations described above. Corresponding single agent dilution series of concentrated Compound A and carboplatin were also prepared. The three dilution series were then tested in the proliferation/viability assay as described above. The data were analyzed using CalcuSyn software (BIOSOFT) that calculates combination index (CI) for each combination of Compound A/carboplatin as described below. Combination index values were generated by inserting the interpolated values into the mutually exclusive equation derived by Chou and Talalay.
(§2) Synergistic interaction between compounds was analyzed by the median effect method described by Chou and Talalay (Adv. Enzyme Regul. 22: 27-55, 1984). Studies were first conducted to determine the potency of Compound A or combination partner (Drug-A) as single agent in inhibiting proliferation/viability of tumor cells. The IC50 values of each single agent were determined by fitting data to four parameter dose-response equation. Percent inhibition of cell growth was calculated relative to vehicle treated control wells. […] Y starts at Bottom and goes to Top with a sigmoid shape.
(§3) The fixed ratio experimental design was then used to compare of various Compound A/Drug-A combinations and corresponding single agent treatments.
(§4) D1 and D2 are known from the composition of the combination and D1c and D2c can be calculated from the equation; Dc=Dm*[fa/(1−fa)]^1/m where Dm is the concentration of drugs giving 50% effect, fa is the fraction affected, and m is the slope from the median effect plot of log (fa/fu) where fu is the fraction unaffected versus log (D). A CI equal to 1 signifies an additive effect, less than 1 a synergistic effect, and greater than 1 an antagonistic effect.
Human ovarian cancer cell (A2780) was obtained from the European Collection of Cell Culture (ECACC). A2780 cells were cultured in RPMI-1640 containing heat-inactivated 10% fetal bovine serum (FBS) in a humidified incubator at 37° C. in 5% CO2.
(§5) The cells were seeded at 2,000 cells/well in RPMI 1640 supplemented with 10% heat-inactivated FBS in 96 well tissue culture plates (CORNING #3340) and incubated at 37° C. in 5% CO2 overnight. On the next day Compound A, doxorubicin or the combination of the two agents was added as a 2-fold dilution series in RPMI containing 1% DMSO. The final DMSO concentration in each assay was 0.1%. The plates were then incubated at 37° C. in 5% CO2 for 72 hours. The number of viable cells was measured using CellTiter-Glo cell viability assay (Promega #G7571). The luminiscence signal was read using a ARVO-SX multimode plate reader (Perkin-Elmer). Combination index was determined by the same method as described in section T1.3.
as §5, with “camptothecin” for “doxorubicin”
The cells were seeded at 2,000 cells/well in RPMI 1640 supplemented with 10% heat-inactivated FBS in 96 well tissue culture plates (CORNING #3340) and incubated at 37° C. in 5% CO2 overnight. On the next day Compound A, 5-FU or the combination of the two agents was added as a 2-fold dilution series in RPMI containing 1% DMSO.

Caspase-3/7 [2] = test: Caspase-3/7 assay (Caspase-Glo 3/7) in A2780 cells, Compound A plus cytotoxic agents
Method: A2780 ovarian cancer cell line was cultured at 37° C. in complete medium (RPMI-1640 supplemented with 10% heat-inactivated FBS) and plated at 2,000 cells/well in 96 well assay plates (CORNING #3340). […] Then, Compound A and cytotoxic agents were added to each well and incubated at 37° C. in 5% CO2 for 24 hours. […] Medium was removed and 50 ul of Caspase-Glo reagents were added to wells. […] Relative Caspase-3/7 induction level was then calculated as the fold increase compared with the level of caspase-3/7 induction in the non-treatment group.

NCI-H460 NSCLC cell line = test: in vitro proliferation/viability, combination Compound A and standard of care agents (CellTiter-Glo, CalcuSyn CI); conditions: combination partner SOC with Compound A, simultaneous 72 h
Method: as §1, §2, §3, §4
Human non-small cell lung cancer cell (NCI-H460) was obtained from the American Type Culture Collection (ATCC). NCI-H460 cells were cultured in RPMI-1640 containing heat-inactivated 10% fetal bovine serum (FBS) in a humidified incubator at 37° C. in 5% CO2.
as §5, with “NCI-H460 NSCLC cell line was” for “The cells were”
as §5, with “NCI-H460 NSCLC cell line was” for “The cells were”, “camptothecin” for “doxorubicin”
NCI-H460 NSCLC cell line was seeded at 2,000 cells/well in RPMI 1640 supplemented with 10% heat-inactivated FBS in 96 well tissue culture plates (CORNING #3340) and incubated at 37° C. in 5% CO2 overnight.

Caspase-3/7 [3] = test: Caspase-3/7 assay (Caspase-Glo 3/7) in NCI-H460 cells, Compound A plus cytotoxic agents
[4] = combination partner SOC with Compound A 62.5 nM
[5] = combination partner SOC with Compound A 250 nM
[6] = combination partner SOC with Compound A 1000 nM

Row | Structure (SMILES) | Combination index for above fractional inhibition, ED50 [1] | Combination index for above fractional inhibition, ED75 [1] | Combination index for above fractional inhibition, ED90 [1] | Caspase-3/7 fold induction at 24 h (fold of DMSO control) (Caspase-3/7 [2]; [4]) | Caspase-3/7 fold induction at 24 h (fold of DMSO control) (Caspase-3/7 [2]; [5]) | Caspase-3/7 fold induction at 24 h (fold of DMSO control) (Caspase-3/7 [2]; [6]) | Combination index for above fractional inhibition, ED50 (NCI-H460 NSCLC cell line) | Combination index for above fractional inhibition, ED75 (NCI-H460 NSCLC cell line) | Combination index for above fractional inhibition, ED90 (NCI-H460 NSCLC cell line) | Caspase-3/7 fold induction at 24 h (fold of DMSO control) (Caspase-3/7 [3]; [4]) | Caspase-3/7 fold induction at 24 h (fold of DMSO control) (Caspase-3/7 [3]; [5]) | Caspase-3/7 fold induction at 24 h (fold of DMSO control) (Caspase-3/7 [3]; [6])
1 | CC[C@@]1(O)C(=O)OCc2c1cc1n(c2=O)Cc2cc3ccccc3nc2-1 [Camptothecin, 4-ethyl-4-hydroxy-1H-pyrano[3′,4′:6,7]indolizino[1,2-b]quinoline-3,14-(4H,12H)-dione] | 0.56 | 0.40 | 0.29 | 1.9 fold of DMSO control | 2.6 fold of DMSO control | 4.0 fold of DMSO control | 0.39 | 0.39 | 0.63 | 1.2 fold of DMSO control | 1.4 fold of DMSO control | 1.7 fold of DMSO control
2 | O=c1[nH]cc(F)c(=O)[nH]1 [Compound 5-FU, 5-fluorouracil] | 0.68 | 0.54 | 0.53 | 1.5 fold of DMSO control | 1.7 fold of DMSO control | 2.5 fold of DMSO control | 0.35 | 0.30 | 0.37 | 1.2 fold of DMSO control | 1.3 fold of DMSO control | 1.4 fold of DMSO control
3 | COc1cccc2c1C(=O)c1c(O)c3c(c(O)c1C2=O)C[C@@](O)(C(=O)CO)C[C@@H]3O[C@H]1C[C@H](N)[C@H](O)[C@H](C)O1 [Doxorubicin, (2S,4S)-4-(3-amino-2,3,6-trideoxy-α-L-lyxo-hexopyranosyloxy)-2,5,12-trihydroxy-2-hydroxyacetyl-7-methoxy-1,2,3,4-tetrahydrotetracene-6,11-dione] | 0.70 | 0.43 | 0.27 | 1.6 fold of DMSO control | 2.8 fold of DMSO control | 4.1 fold of DMSO control | 0.27 | 0.18 | 0.17 | 1.3 fold of DMSO control | 1.7 fold of DMSO control | 2.8 fold of DMSO control
